The numbers were not newly measured in article PMC12658903 (RSC Medicinal Chemistry, 2025), which cites them from elsewhere.

Each structure is given as a SMILES string. pIC50: −log10 of the molar value.

The test system of data set [1] is furin. The note with it: read-out: IC50 furin; cited from earlier work.
Data set [2] relates to TMPRSS2. Conditions: read-out: IC50 (μM) TMPRSS2; cited from earlier work.
Data set [3] concerns HAT. Conditions: read-out: IC50 (μM) HAT; cited from earlier work.

Consider `N=C(N)c1ccc(/N=N/Nc2ccc(C(=N)N)cc2)cc1` [diminazen], for which the pIC50 in data set [1] is 4.88.
As to `CN(C)C(=O)COC(=O)Cc1ccc(OC(=O)c2ccc(NC(=N)N)cc2)cc1` [Camostat, camostat], the IC50 in data set [2] is […]; in data set [3], 0.151 µM.
